In patent publication US20180362598A1 (priority 2016, published 2018):

tested on: insect gut protease (X condition); assay type: biochemical

Substance | % of Max Slope X [%]
LFVRLRGS | 94
LRLFVGS | 74
LFVALKGS | 92
IFVALKGS | 69
LKLFVGS | 98
